Measured values published in PMC10711165, “DNA conformational dynamics in the context-dependent non-CG CHH methylation by plant methyltransferase DRM2” (The Journal of Biological Chemistry, 2023).

Biological target: T1, DRM2 MTase domain (DOMAINS REARRANGED METHYLTRANSFERASE 2) (Arabidopsis thaliana, UniProt Q9M548)
T1 construct: MTase domain, residues 270-626, His6-SUMO tag cleaved by ULP1, expressed in E. coli BL21 DE3 (RIL); residues 275-626 traced in crystal
T1 sequence (Q9M548 270-626): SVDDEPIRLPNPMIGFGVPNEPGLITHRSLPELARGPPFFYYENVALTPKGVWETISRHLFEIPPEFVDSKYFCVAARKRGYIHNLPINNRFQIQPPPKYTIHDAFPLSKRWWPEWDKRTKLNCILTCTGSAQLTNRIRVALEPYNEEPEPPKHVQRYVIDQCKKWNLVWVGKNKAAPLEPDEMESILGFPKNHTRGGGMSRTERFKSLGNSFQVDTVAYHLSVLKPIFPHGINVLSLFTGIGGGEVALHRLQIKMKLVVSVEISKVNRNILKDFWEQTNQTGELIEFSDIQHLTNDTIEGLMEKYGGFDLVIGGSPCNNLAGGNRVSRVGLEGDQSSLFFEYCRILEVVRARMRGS
Assay: X-ray crystallography, […] A
Type: binding
Details: covalent complex of protein C587 with 18-mer 5-fluorocytosine CTA DNA duplex; SAH at the cofactor site; crystals at 4 °C, 1 mM SAH

Nc1ncnc2c1ncn2[C@@H]1O[C@H](CSCC[C@H](N)C(=O)O)[C@@H](O)[C@H]1O [S-adenosyl-homocysteine]
X-ray crystallography, 2.91 A: The crystal structure of the DRM2-CTA complex bound to cofactor by-product S-adenosyl-homocysteine (SAH)
